Source: patent publication US20240299542A1, “NATURAL KILLER CELLS ENGINEERED TO REDUCE OR ELIMINATE CBL-B AND USES THEREOF” (City of Hope, priority 2021, published 2024)

Key:
[1] = tested on: Molm-13, MV4-11 or EOL-1 leukemia cell lines; type: cell-based, human
Method: FIGS. 3A-3E depict the results of a study showing that downregulation of Cbl-b enhances the cytotoxicity of primary human NK cells. (FIGS. 3A and 3B) Primary human NK cells transduced with Cbl-b siRNA or Scr siRNA for 24 h were stimulated without (FIG. 3A) or with (FIG. 3B) a low concentration of IL-15 (2 ng/ml) for 16 h, then co-cultured with ^51Cr labeled Molm-13, MV4-11 or EOL-1 leukemia cell lines for 4 h, followed by quantification of specific tumor cell lysis. Each experiment was repeated with 6 different normal donors. (FIG. 3C) qRT-PCR was performed to quantify the granzyme B (GZMB) mRNA levels (n=8 donors) in siRNA- and Scr siRNA-transduced primary human NK cells incubated without or with IL-15 (10 ng/ml) for 16 h. (FIG. 3D) The concentration of the granzyme B protein in the supernatants of Cbl-b siRNA- and Scr siRNA-transduced primary human NK cells incubated without (688.1 pg/ml vs 525.4 pg/ml; P=0.0232) or with IL-15 (10 ng/ml) for 24 h (8789 pg/ml vs 3397 pg/ml; P=0.0232) was measured by ELISA (n=8 donors). (FIG. 3E) The level of granzyme B protein in Cbl-b siRNA- and Scr siRNA-transduced primary human NK cells incubated without or with IL-15 (10 ng/ml) for 24 h was measured by immunoblot analysis. The data are representative of three experiments. Scr-scrambled; *P<0.05, **P<0.01, ***P<0.001, ****P<0.0001 by One-way or Two-way ANOVA; ns, not significant. […]

granzyme B = experiment: RNA-seq of siRNA-transduced primary human NK cells; type: cell-based; conditions: without or with IL-15 (10 ng/ml) 16 h, vs Scr siRNA
Method: FIGS. 4A-4D depict the results of a study showing that downregulation of Cbl-b increases IFN-γ secretion in IL-15-activated primary human NK cells. (FIG. 4A) RNAseq was conducted using primary human NK cells transduced with either Cbl-b siRNA or Scr siRNA without or with incubation in IL-15 (10 ng/ml) for 16 h (4 donors for each group). […] (FIG. 4B) qRT-PCR was performed to quantify the mRNA levels of IFN-γ (n=6 donors) after IL-15 (10 ng/ml) 6 h stimulation. (FIG. 4C) The percentage of intracellular IFN-γ+ cells in un-transduced NK cells or those transduced with Cbl-b siRNA or Scr siRNA, each activated with IL-15 (10 ng/ml) for 24 h (11.5% vs 4.338%; P=0.0008; n=5 donors). (FIG. 4D) Supernatants were collected after IL-15 (10 ng/ml) for 24 h and IFN-γ concentrations measured by ELISA (18115 pg/ml vs 882.5 pg/ml; P=0.0099; n=7 donors). Scr-scrambled; *P<0.05, **P<0.01, ***P<0.001 by Student's two-tailed paired t-test or One-way ANOVA; ns, not significant. Data presented as mean±SEM.
To further explore how Cbl-b regulates the functions of primary human NK cells, we performed RNA-seq analyses using enriched primary NK cells from healthy donors transduced with Cbl-b siRNA or Scr siRNA without or with IL-15 treatment for 16 h (n=4 in each group). […]

Cbl-b siRNA: Cbl-b-specific Accell siRNA (Dharmacon), SEQ ID NO:1, CCUUCAUGUUCAGAUGGUU (Accell modified siRNA, pattern not given here)
cytotoxicity (specific lysis) without IL-15 [1]: significant increase in cytotoxicity against three of the four AML cell lines | transcriptional level of granzyme B (RNA-seq) (granzyme B): increased
